From PMC6572135, “N-Methyl-D-glucamine–Calix[4]resorcinarene Conjugates: Self-Assembly and Biological Properties” (Molecules, 2019)

What was measured:
[1] = Tensiometry (surface tension, Du-Noüy ring), critical aggregation concentration; assay type: physicochemical; conditions: 25 °C
Method: In the next step of the study of GCR self-assembly the tensiometry method was used. Surface tension decreases with increasing GCR-1 concentration, but above the CAC (15 mM) the slope angle of the dependence changes (Figure 2). […] Concentration point of 15 mM, at which occurs inflection of surface tension dependence, corresponds to CAC that is in good agreement with conductometric value. The tensiometric CAC value of GCR-2 (3.3 mM) is slightly different from the conductometric value (7.9 mM, Table 1). The tensiometry method is well known to fix the changes of the mutual disposition of the molecules at the water–air interface, whereas conductometry measures the number and mobility of ions in the bulk solution. The CAC values obtained for GCR-2 are lower compared to those for GCR-1. The improved ability to aggregation of GCR-2 in comparison with GCR-1 may be due higher hydrophobicity of GCR-2. The relations between the surface tension and the concentration of macrocycle solution were illustrated in Figure 8. […] The first inflection point was determined after a concentration of 10 mM, which can be correlated with the CAC value in the aqueous environment. […] The turning point of the tensiometric curve for GCR-2 can be determined as 3.3 mM that is same as in water. […]

[2] = Transmission electron microscopy of aggregates; assay type: physicochemical; conditions: aqueous solution mixture of GCR-2 with two-fold excess of MG
Method: In a mixed 1 mM GCR-2–2 mM MG system particles with a hydrodynamic diameter of 2 nm were formed, which correlates well with the size of single macrocycle molecules. In a 15 mM GCR-2–30 mM MG mixed system particles with 3.8 nm diameter were formed. Such a size approximately corresponds to double the length of a GCR-2 molecule. This indicates of formation of spherical micelles by virtue of lateral packaging of aromatic walls by head-to-head contact due to π–stacking and hydrogen bonds between neighboring GCR-2 molecules as depicted in Figure 6b. Such an aggregation mode is similar to the self-assembly behavior described for other calixarenes. The zeta-potential of obtained particles is −17.4 mV which is attributable primarily to hydroxylic groups. The formation of little spherical particles was further affirmed by TEM images (Figure 5b). In comparison with the nanostructure of GCR-1 aggregates, smaller nanostructures with a diameter of ca. 5 ± 2 nm were formed in the aqueous solution mixture of GCR-2, which was in good accordance with the DLS measurements.
TEM images were recorded on a HT7700 TEM instrument (Hitachi, Tokyo, Japan) operated at 110 kV accelerating voltage. The samples with 20 mM solutions were ultrasonicated in water for 10 min and then dispersed on 300 mesh carbon-coated copper grid.

First inflection / turning point of the tensiometric curve ([1]; 50% DMSO–50% water): 3.3 mM | CAC, tensiometry ([1]; water solution, GCR-2 in the presence of two-fold excess of MG): 3.3 mM | Diameter of nanostructures by TEM [2]: ca. 5 ± 2 nm
Structure (SMILES): CC1c2cc(c(O)c(CN(C)C[C@@H](O)[C@H](O)[C@@H](O)[C@@H](O)CO)c2O)C(C)c2cc(c(O)c(CN(C)C[C@@H](O)[C@H](O)[C@@H](O)[C@@H](O)CO)c2O)C(C)c2cc(c(O)c(CN(C)C[C@@H](O)[C@H](O)[C@@H](O)[C@@H](O)CO)c2O)C(C)c2cc1c(O)c(CN(C)C[C@@H](O)[C@H](O)[C@@H](O)[C@@H](O)CO)c2O (stereo partly drawn) [GCR-2, N-methyl-D-glucaminemethyl methylcalix[4]resorcinarene]
